Assay results: ChEMBL document CHEMBL5038674, “Structure-Activity Relationship of Anti-Mycobacterium abscessus Piperidine-4-carboxamides, a New Class of NBTI DNA Gyrase Inhibitors” (ACS Med Chem Lett, 2022)
Values after ≈ are worked out from the molar mass of the structure shown. Blank lines part the entries; values can stand above or below the compound they belong to. Active and inactive are the calls of the source. No cut-off for these calls is given here.

Tests used:
[1] = Antimycobacterial activity against Mycobacterium abscessus subsp. abscessus bamboo strain assessed as inhibition of mycobacterial growth incubated for 3 days by broth microdilution method; format: functional; settings: Mycobacteroides abscessus, 72 h, time 3 day
[2] = Lipophilicity, logP of compound; format: physicochemical; settings: octanol/water
[3] = Inhibition of Mycobacterium abscessus DNA gyrase using pBR322 DNA as substrate […] by fluorescence based microplate reader assay; set-up: species or system Mycobacteroides abscessus
HT-29 = test: Cytotoxicity against human HT-29 cells assessed as reduction in cell viability upto 30 uM after 24 hrs by SRB assay; format: functional, cell-based; settings: dose microM <=30, time 24.0 hrs
MCF7 = test: Cytotoxicity against human MCF7 cells assessed as reduction in cell viability upto 30 uM after 24 hrs by SRB assay; format: functional, cell-based; settings: dose microM <=30, time 24.0 hrs
[4] = Antimycobacterial activity against Mycobacterium abscessus subsp. massiliense CCUG 48898T assessed as inhibition of mycobacterial growth incubated for 3 days by broth microdilution method; format: functional; settings: Mycobacteroides abscessus, 72 h, time 3 day
Staphylococcus aureus = test: Antibacterial activity against Staphylococcus aureus assessed as inhibition of bacterial growth incubated for 3 days by broth microdilution method; format: functional; settings: 72 h, time 3 day
Mycobacterium avium = test: Antimycobacterial activity against Mycobacterium avium 11 assessed as inhibition of mycobacterial growth incubated for 3 days by broth microdilution method; format: functional; settings: Mycobacterium avium, 11, 72 h; time 3 day
[5] = system: Mycobacteroides abscessus; test: Antimycobacterial activity against Mycobacterium abscessus K21 assessed as inhibition of mycobacterial growth incubated for 3 days by broth microdilution method; format: functional; settings: K21, 72 h, time 3 day
HEK293 = test: Cytotoxicity against human HEK293 cells assessed as reduction in cell viability upto 30 uM after 24 hrs by SRB assay; format: toxicity, cell-based; settings: hek293, 24 h
A-375 = test: Cytotoxicity against human A375 cells assessed as reduction in cell viability upto 30 uM after 24 hrs by SRB assay; format: functional, cell-based; settings: dose microM <=30, time 24.0 hrs
NIH3T3 = test: Cytotoxicity against mouse NIH3T3 cells assessed as reduction in cell viability upto 30 uM after 24 hrs by SRB assay; format: toxicity, cell-based; settings: nih3t3, 24 h
[6] = system: Mycobacteroides abscessus; test: Antimycobacterial activity against Mycobacterium abscessus ATCC 19977 assessed as inhibition of mycobacterial growth incubated for 3 days by broth microdilution method; format: functional; settings: ATCC 19977, 72 h, time 3 day
[7] = Antimycobacterial activity against Mycobacterium abscessus subsp. bolletii CCUG 50184T assessed as inhibition of mycobacterial growth incubated for 3 days by broth microdilution method; format: functional; settings: Mycobacteroides abscessus, 72 h, time 3 day
FaDu = test: Cytotoxicity against human FaDu cells assessed as reduction in cell viability upto 30 uM after 24 hrs by SRB assay; format: functional, cell-based; settings: dose microM <=30, time 24.0 hrs
[8] = Stability of compound in CD1 mouse plasma assessed as parent compound remaining by QE-HRMS analysis; format: ADME, cell-free
[9] = Stability of compound in CD1 mouse at 25 mg/kg, po by HPLC-MS/MS analysis; format: ADME, organism-based; settings: in vivo
[10] = molecular target: Voltage-gated inwardly rectifying potassium channel KCNH2 (Homo sapiens, UniProt Q12809); test: Inhibition of human ERG; format: toxicity
[11] = system: Mycobacterium abscessus subsp. abscessus; test: Upregulation of RecA promoter activity in Mycobacterium abscessus subsp. abscessus ATCC 19977 assessed as bacterial DNA damage by luminescence assay; format: functional
[12] = system: Mycobacterium abscessus subsp. abscessus; test: Upregulation of RecA promoter activity in P4C resistant Mycobacterium abscessus subsp. abscessus ATCC 19977 mutant D91N assessed as bacterial DNA damage by luminescence assay; format: functional; settings: time 3.0 day
hERG (KCNH2) = hERG (KCNH2) (Homo sapiens, UniProt Q12809); test: Inhibition of human ERG at 10 uM; format: toxicity
hERG (KCNH2), sequence (Q12809 whole entry): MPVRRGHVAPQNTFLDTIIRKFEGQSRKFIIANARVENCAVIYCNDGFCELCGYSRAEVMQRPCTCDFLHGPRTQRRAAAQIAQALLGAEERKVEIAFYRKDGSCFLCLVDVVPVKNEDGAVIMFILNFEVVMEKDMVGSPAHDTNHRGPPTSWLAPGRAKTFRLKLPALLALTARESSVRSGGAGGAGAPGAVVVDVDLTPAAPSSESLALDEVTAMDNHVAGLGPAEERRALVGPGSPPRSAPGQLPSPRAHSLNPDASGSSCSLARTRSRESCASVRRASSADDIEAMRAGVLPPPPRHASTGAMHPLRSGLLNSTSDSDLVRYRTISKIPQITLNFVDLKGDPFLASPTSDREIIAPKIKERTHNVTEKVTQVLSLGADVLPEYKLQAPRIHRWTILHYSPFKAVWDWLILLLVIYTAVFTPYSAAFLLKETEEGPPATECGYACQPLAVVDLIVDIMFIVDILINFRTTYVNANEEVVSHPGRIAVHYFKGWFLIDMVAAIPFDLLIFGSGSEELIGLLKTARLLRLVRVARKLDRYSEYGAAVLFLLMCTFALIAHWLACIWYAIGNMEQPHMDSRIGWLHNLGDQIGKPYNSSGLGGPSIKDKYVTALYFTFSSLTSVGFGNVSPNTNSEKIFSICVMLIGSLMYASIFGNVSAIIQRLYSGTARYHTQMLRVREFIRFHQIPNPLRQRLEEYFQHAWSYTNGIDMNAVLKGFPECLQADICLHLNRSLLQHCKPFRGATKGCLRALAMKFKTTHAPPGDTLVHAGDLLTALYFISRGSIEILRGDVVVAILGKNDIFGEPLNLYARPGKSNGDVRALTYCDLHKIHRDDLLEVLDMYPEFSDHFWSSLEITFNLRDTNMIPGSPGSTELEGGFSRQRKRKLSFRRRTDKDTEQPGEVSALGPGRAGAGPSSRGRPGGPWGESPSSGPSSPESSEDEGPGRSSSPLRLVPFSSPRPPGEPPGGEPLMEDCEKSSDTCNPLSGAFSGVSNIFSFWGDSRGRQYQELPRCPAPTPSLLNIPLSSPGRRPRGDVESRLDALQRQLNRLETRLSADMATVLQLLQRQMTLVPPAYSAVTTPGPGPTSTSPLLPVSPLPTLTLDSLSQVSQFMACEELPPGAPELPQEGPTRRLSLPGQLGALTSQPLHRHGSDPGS

Voltage-gated inwardly rectifying potassium channel KCNH2, sequence (Q12809 whole entry): as above

MIC90 [1]: 100 µM (≈ 45.7 µg/mL)
logP [2]: 3
IC50 [3]: 6000 nM
Compound: COc1ccc2nccc(NC(=O)C3CCN(CCc4ccc(C(F)(F)F)cc4)CC3)c2c1

MIC90 [1]: 50 µM (≈ 21.3 µg/mL)
logP [2]: 2.3
Compound: COc1ccc2nccc(NC(=O)C3CCN(CCc4ccc(F)cc4F)CC3)c2n1

Compound: COc1ccc2nccc(NC(=O)[C@H]3CC[C@H](NCc4ccc(C(F)(F)F)cc4)CC3)c2n1
Activity (HT-29): inactive
MIC90 [1]: 0.4 µM (≈ 0.183 µg/mL)
logP [2]: 3.3
Activity (MCF7): inactive
IC50 [3]: 1500 nM
MIC90 [4]: 1.2 µM (≈ 0.55 µg/mL)
MIC90 (Staphylococcus aureus): 0.7 µM (≈ 0.321 µg/mL)
MIC90 (Mycobacterium avium): 2 µM (≈ 0.917 µg/mL)
MIC90 [5]: 2 µM (≈ 0.917 µg/mL)
Activity (HEK293): Non-Toxic
Activity (A-375): inactive
Activity (NIH3T3): Non-Toxic
MIC90 [6]: 0.4 µM (≈ 0.183 µg/mL)
MIC90 [7]: 1 µM (≈ 0.458 µg/mL)
Activity (FaDu): inactive

MIC90 [1]: 50 µM (≈ 23.1 µg/mL)
logP [2]: 3.9
IC50 [3]: 3000 nM
Compound: O=C(Nc1cccc2ccc(Cl)nc12)C1CCN(CCc2ccc(C(F)(F)F)cc2)CC1

Compound: COc1ccc2nccc(NC(=O)C3(C)CCN(CCc4ccc(C(F)(F)F)cc4)CC3)c2n1
Stability [8]: Stable
Activity (HT-29): inactive
MIC90 [1]: 3 µM (≈ 1.42 µg/mL)
logP [2]: 3.3
Stability [9]: Stable
Activity (MCF7): inactive
IC50 [3]: 6000 nM
MIC90 [4]: 8 µM (≈ 3.78 µg/mL)
MIC90 (Staphylococcus aureus): 1 µM (≈ 0.473 µg/mL)
MIC90 (Mycobacterium avium): 6 µM (≈ 2.84 µg/mL)
MIC90 [5]: 8 µM (≈ 3.78 µg/mL)
Activity (HEK293): Non-Toxic
Activity (A-375): inactive
Activity (NIH3T3): Non-Toxic
MIC90 [6]: 3 µM (≈ 1.42 µg/mL)
MIC90 [7]: 6.4 µM (≈ 3.02 µg/mL)
Activity (FaDu): inactive

MIC90 [1]: 12 µM (≈ 5.1 µg/mL)
logP [2]: 2.6
IC50 [3]: 3000 nM
Compound: COc1ccc2nccc(NC(=O)C3CCN(CCc4ccc(Cl)cc4)CC3)c2n1
Activity (HT-29): inactive
Activity (MCF7): inactive
Activity (A-375): inactive
Activity (FaDu): inactive

MIC90 [1]: 100 µM (≈ 42.1 µg/mL)
logP [2]: 1.9
Compound: COc1ccc(CCN2CCC(C(=O)Nc3ccnc4ccc(OC)nc34)CC2)cc1

MIC90 [1]: 100 µM (≈ 49.5 µg/mL)
logP [2]: 2.4
Compound: COc1ccc2nccc(NS(=O)(=O)C3CCN(CCc4ccc(C(F)(F)F)cc4)CC3)c2n1

MIC90 [1]: 25 µM (≈ 10.2 µg/mL)
logP [2]: 2.1
Compound: COc1ccc2nccc(NC(=O)C3CCN(CCc4cccc(F)c4)CC3)c2n1

MIC90 [1]: 50 µM (≈ 21.2 µg/mL)
logP [2]: 2.8
Compound: COc1ccc2nccc(NC(=O)C3CCN(CCc4ccc(Cl)cc4)CC3)c2c1

MIC90 [1]: 100 µM (≈ 42.6 µg/mL)
logP [2]: 2.3
Compound: COc1ccc2nccc(NC(=O)C3CCN(CCc4c(F)cccc4F)CC3)c2n1

MIC [1]: 0.06 µM (≈ 0.0317 µg/mL)
IC50 [3]: 110 nM
Compound: O=C1COc2ccc(CNC3CCN(CCn4c(=O)ccc5ccc(Oc6ccccn6)nc54)CC3)nc2N1
IC50 [10]: 155000 nM

Compound: O=c1ccc2ncc(=O)n3c2n1C[C@H]3CN1CCC(NCc2cc3c(cn2)OCCC3)CC1 [GEPOTIDACIN]
Activity [11]: Active
MIC90 [1]: 10 µM (≈ 4.49 µg/mL)
logP [2]: 0.1
IC50 [3]: 2000 nM
Activity [12]: inactive

MIC90 [1]: 3.12 µM (≈ 1.43 µg/mL)
logP [2]: 3.6
IC50 [3]: 3000 nM
Compound: COc1ccc2cccc(NC(=O)C3CCN(CCc4ccc(C(F)(F)F)cc4)CC3)c2n1
Activity (HT-29): inactive
Activity (MCF7): inactive
Activity (HEK293): Non-Toxic
Activity (A-375): inactive
Activity (NIH3T3): Non-Toxic
Activity (FaDu): inactive

Compound: COc1ccc2nccc(NC(=O)C3CCN(CCc4ccc(C(F)(F)F)cc4)CC3)c2n1
Stability [8]: Stable
Activity (HT-29): inactive
MIC90 [1]: 1.5 µM (≈ 0.688 µg/mL)
logP [2]: 2.9
Stability [9]: Stable
Activity (MCF7): inactive
IC50 [3]: 1500 nM
MIC90 [4]: 2 µM (≈ 0.917 µg/mL)
MIC90 (Staphylococcus aureus): 0.2 µM (≈ 0.0917 µg/mL)
MIC90 (Mycobacterium avium): 2.5 µM (≈ 1.15 µg/mL)
MIC90 [5]: 3.5 µM (≈ 1.6 µg/mL)
Activity (HEK293): Non-Toxic
inhibition at 10 µM (hERG (KCNH2)): 93%
Activity (A-375): inactive
Activity (NIH3T3): Non-Toxic
MIC90 [6]: 1.5 µM (≈ 0.688 µg/mL)
MIC90 [7]: 2 µM (≈ 0.917 µg/mL)
Activity (FaDu): inactive

MIC90 [1]: 50 µM (≈ 20.4 µg/mL)
logP [2]: 2.1
Compound: COc1ccc2nccc(NC(=O)C3CCN(CCc4ccc(F)cc4)CC3)c2n1

Compound: COc1ccc2nccc(NC(=O)C3CCN(CCc4ccc(C(F)(F)F)c(F)c4)CC3)c2n1
Activity (HT-29): inactive
MIC90 [1]: 0.6 µM (≈ 0.286 µg/mL)
logP [2]: 3.1
Activity (MCF7): inactive
MIC90 [4]: 1.5 µM (≈ 0.715 µg/mL)
MIC90 (Staphylococcus aureus): 0.5 µM (≈ 0.238 µg/mL)
MIC90 (Mycobacterium avium): 0.8 µM (≈ 0.381 µg/mL)
MIC90 [5]: 2 µM (≈ 0.953 µg/mL)
Activity (HEK293): Non-Toxic
Activity (A-375): inactive
Activity (NIH3T3): Non-Toxic
MIC90 [6]: 0.6 µM (≈ 0.286 µg/mL)
MIC90 [7]: 1 µM (≈ 0.476 µg/mL)
Activity (FaDu): inactive

MIC90 [1]: 25 µM (≈ 10.7 µg/mL)
logP [2]: 2.3
Compound: COc1ccc2nccc(NC(=O)C3CCN(CCc4ccc(F)c(F)c4)CC3)c2n1

MIC90 [1]: 100 µM (≈ 45.8 µg/mL)
logP [2]: 2.8
IC50 [3]: 40000 nM
Compound: COc1ccc2nccc(NC(=O)CC3CCN(Cc4ccc(C(F)(F)F)cc4)CC3)c2n1

MIC90 [1]: 50 µM (≈ 20.4 µg/mL)
logP [2]: 2.1
Compound: COc1ccc2nccc(NC(=O)C3CCN(CCc4ccccc4F)CC3)c2n1

MIC90 [1]: 50 µM (≈ 21.3 µg/mL)
logP [2]: 2.3
Compound: COc1ccc2nccc(NC(=O)C3CCN(CCc4cc(F)cc(F)c4)CC3)c2n1

MIC90 [1]: 100 µM (≈ 42.6 µg/mL)
logP [2]: 2.3
Compound: COc1ccc2nccc(NC(=O)C3CCN(CCc4cccc(F)c4F)CC3)c2n1

MIC [1]: < 0.02 µM
Compound: COc1cnc2ccc(=O)n(CCN3CCC(NCc4ccc(Cl)c(Cl)c4)CC3)c2c1
IC50 [10]: 1320 nM

MIC90 [1]: 100 µM (≈ 47.4 µg/mL)
logP [2]: 4
Compound: COc1ccc2nccc(NC(=O)C3CCN(CCc4ccc(OC(F)(F)F)cc4)CC3)c2n1

MIC90 [1]: 12.5 µM (≈ 5.73 µg/mL)
logP [2]: 2.9
Compound: COc1ccc2nccc(NC(=O)C3CCN(CCc4cccc(C(F)(F)F)c4)CC3)c2n1
Activity (HT-29): inactive
Activity (MCF7): inactive
Activity (HEK293): Non-Toxic
Activity (A-375): inactive
Activity (NIH3T3): Non-Toxic
Activity (FaDu): inactive

Compound: COc1c(N2C[C@@H]3CCCN[C@@H]3C2)c(F)cc2c(=O)c(C(=O)O)cn(C3CC3)c12 [MOXIFLOXACIN]
MIC90 [1]: 2 µM (≈ 0.803 µg/mL)
MIC90 [4]: 4 µM (≈ 1.61 µg/mL)
MIC90 (Staphylococcus aureus): 0.2 µM (≈ 0.0803 µg/mL)
MIC90 (Mycobacterium avium): 0.6 µM (≈ 0.241 µg/mL)
MIC90 [5]: 4 µM (≈ 1.61 µg/mL)
MIC90 [6]: 2 µM (≈ 0.803 µg/mL)
MIC90 [7]: 4 µM (≈ 1.61 µg/mL)
